SMILES | melting point
Cl.O=C(NCCCC1CC1)c1ccc(N2CCC(Nc3ccccc3C(F)(F)F)CC2)nn1 | 117 to 121 °C
O=C(NCCCC1CC1)c1ccc(N2CCC(N3C(=O)C(F)(F)c4ccccc43)CC2)nn1 | 51 to 53 °C
CCCCCNC(=O)c1ccc(N2CCC(Nc3ccc(F)cc3C(F)(F)F)CC2)nn1.Cl | 136 to 139 °C
Cl.O=C(NCCC1CC1)c1ccc(N2CCC(Nc3ccc(F)cc3C(F)(F)F)CC2)nn1 | 134 to 137 °C
Cl.O=C(NCCCC1CC1)c1ccc(N2CCC(Nc3ccc(F)cc3C(F)(F)F)CC2)nn1 | 143 to 147 °C
Cl.O=C(NCCC1CC1)c1ccc(N2CCC(Nc3ccccc3C(F)(F)F)CC2)nn1 | 158 to 163 °C
